Source: PubChem BioAssay (NCI)
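In this assay, cells in 96-well plates receive the compound at five concentrations for 48 hours. Endpoints are linearly interpolated between the surrounding concentrations. The concentration for 50% growth inhibition is given as GI50. TGI: total growth inhibition.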

Tests used:
Assay in all cases: NCI anticancer screen, dose series, 48 h
[1] = test system: HCT-116 colon
[2] = test system: HT29 colon
[3] = test system: SK-MEL-5 melanoma
[4] = test system: LOX IMVI melanoma
[5] = test system: UO-31 renal
[6] = test system: KM12 colon
[7] = test system: M14 melanoma
[8] = test system: SK-MEL-28 melanoma
[9] = test system: NCI-H23 lung
[10] = test system: OVCAR-3 ovarian

| Compound | GI50 [1] [µM] | TGI [1] [µM] | GI50 [2] [µM] | TGI [2] [µM] | GI50 [3] [µM] | TGI [3] [µM] | GI50 [4] [µM] | TGI [4] [µM] | GI50 [5] [µM] | TGI [5] [µM] | GI50 [6] [µM] | TGI [6] [µM] | GI50 [7] [µM] | TGI [7] [µM] | GI50 [8] [µM] | TGI [8] [µM] | GI50 [9] [µM] | TGI [9] [µM] | GI50 [10] [µM] | TGI [10] [µM] |
| --- | --- | --- | --- | --- | --- | --- | --- | --- | --- | --- | --- | --- | --- | --- | --- | --- | --- | --- | --- | --- |
| COc1ccc(CCN(CC(=O)N(CC(N)=O)C2CCC[C@@H]2OCc2ccccc2)C(=O)CN(C(=O)CN(CCc2ccc(Cl)cc2)C(=O)CN(C(=O)CN(C)Cc2ccccc2F)[C@H](C)C2CCCCC2)[C@H](C)C2CCCCC2)cc1OC (stereo not given in full) | 1.6 | > 50 | 1.25 | 5.75 | 1.7 | 8.62 | 1.08 | 2.77 | 2.2 | > 50 | 1.58 | > 50 | 1.13 | 4.05 | 1.89 | > 50 | 3.26 | > 50 | 1.82 | > 50 |
| CC(C)(C)c1cc(CCCCCCCC2(CCCCCCCc3cc(C(C)(C)C)cc(C(C)(C)C)c3)OC(COCCOCCCCCC#N)C(COCCOCCCCCC#N)O2)cc(C(C)(C)C)c1 (stereo not given) | – | > 100 | – | > 100 | – | > 100 | – | > 100 | – | > 100 | – | > 100 | – | > 100 | – | > 100 | – | > 100 | – | > 100 |
| CCN(CC)CC(C)C(=O)/C=C/c1ccc(C)cc1 (stereo not given) | – | 3.16 | – | 3.31 | – | 17 | – | 2.69 | – | 26.4 | – | 1.96 | – | 4.85 | – | 3.69 | – | 19.9 | – | 9.93 |
| Cc1cnc2oc3ccc(O)cc3c2c1-c1ccccc1 | > 100 | > 100 | > 100 | > 100 | 35.8 | > 100 | 21.6 | > 100 | 51.6 | > 100 | > 100 | > 100 | > 100 | > 100 | > 100 | > 100 | 21.6 | > 100 | 47.5 | > 100 |
| O=C(c1ccc(C(F)(F)F)c(Cl)c1)N(Cc1ccc(Cl)cc1)c1ccc(-c2cc(C(F)(F)F)[nH]n2)c(O)c1 | 0.705 | 1.58 | 1.25 | 5.55 | 0.816 | 1.55 | 0.819 | 1.5 | 0.717 | 1.65 | 0.951 | 2.19 | 1.01 | 2.43 | 1.43 | 5.16 | 0.91 | 2.45 | 0.845 | 2.19 |
| c1ccncc1 | – | > 100 | – | > 100 | – | > 100 | – | > 100 | – | > 100 | – | > 100 | – | > 100 | – | > 100 | – | > 100 | – | > 100 |
| CCOc1cn(C2OC(CO)C(O)C2O)c(=O)[nH]c1=O (stereo not given) | – | > 100 | – | > 100 | – | > 100 | – | > 100 | – | > 100 | – | > 100 | – | > 100 | – | > 100 | – | > 100 | – | > 100 |
| CC1(C)N=C(N)N=C(N)N1c1ccc(Cl)cc1 | 0.627 | > 100 | 1.19 | > 100 | 3.99 | > 100 | 2.85 | > 100 | > 100 | > 100 | 6.68 | > 100 | 5.52 | > 100 | 53.5 | > 100 | 2.51 | > 100 | 11.3 | > 100 |
